Patent US20260356817A1, “AMINOPYRIMIDINE AND AMINOTRIAZINE DERIVATIVES AS MYC PROTEIN MODULATORS” (Sanford Burnham Prebys Medical Discovery Institute, priority 2022, published 2026)
Where two headings read alike, the source gives them in different places.

Assays:
Myc [1] = assay: Western blot of Myc in H-82 cells (small cell lung cancer); format: cell-based; details: 0.18 μM and 1.0 μM, 4 hours, Western blot (FIG. 5D)
Procedure: (§1) Cell lines derived from acute monocytic leukemia, acute promyelocytic leukemia, pancreatic adenocarcinoma and small cell lung cancer were treated with vehicle (DMSO) or the indicated concentrations of Compound 171 for 4 hours, and then lysed and subjected to Western blotting using antibodies specific for Myc or GAPDH as control.

[2] = Plasma and brain concentrations in NSG mice after oral administration (LCMS); format: in vivo, mice (non-tumor-bearing NSG); details: 100 mg/kg oral
Procedure: Non-tumor-bearing NOD-SCID-IL2Rgamma knockout (NSG) mice were treated with Compound 171 at 100 mg/kg via oral administration. Blood was collected retro-orbitally or by cardiac puncture for measuring compound concentrations. For measurements of compound concentration in the brain, animals were sacrificed, and brain tissue was harvested and homogenized. Compound concentration was determined by liquid chromatography-mass spectrometry (LCMS).

Myc [3] = assay: Western blot of Myc in cultured medulloblastoma PDX cells; format: cell-based, human (patient-derived); details: 0.18 μM, Western blot (FIG. 4A)
Procedure: (§2) Medulloblastoma PDX cells were harvested from the brains of tumor-bearing mice, cultured overnight, and then treated with Compound 171 for various amounts of time. Cells cultured for time points of 1 hour, 2 hours, and 4 hours were lysed and subjected to Western blotting with antibodies specific for Myc or GAPDH as control, as shown in FIG. 4A. Cells cultured for longer time points of 48 hours and 96 hours were assayed for viability using the CellTiter Glo assay, as shown in FIG. 4B and FIG. 4C.

[4] = test system: medulloblastoma PDX cells; assay: CellTiter Glo viability of medulloblastoma PDX cells; format: cell-based, human (patient-derived); details: 0.18 μM
Procedure: as §2

[5] = test system: PDX511 medulloblastoma cells; assay: Cell viability of PDX511 medulloblastoma cells at 4 hours; format: cell-based, human (patient-derived)
Myc [6] = assay: Western blot of Myc in BxPC-3 cells (pancreatic adenocarcinoma); format: cell-based; details: 0.18 μM and 1.0 μM, 4 hours, Western blot (FIG. 5C)
Procedure: as §1

Myc [7] = assay: Western blot of Myc in HL-60 cells (acute promyelocytic leukemia); format: cell-based; details: 0.18 μM and 1.0 μM, 4 hours, Western blot (FIG. 5B)
Procedure: as §1

Myc [8] = assay: Western blot of Myc in THP-1 cells (acute monocytic leukemia); format: cell-based; details: 0.18 μM and 1.0 μM, 4 hours, Western blot (FIG. 5A)
Procedure: as §1

[9] = test system: retinoblastoma (Rb) protein; assay: Rb protein expression in PDX511 medulloblastoma cells (immunofluorescence); format: cell-based, human (patient-derived)
Myc [10] = assay: Myc levels in intracranial medulloblastoma PDX tumors in mice after oral administration (Western blot); format: in vivo, NSG mice transplanted with medulloblastoma PDX cells
Procedure: NSG mice transplanted with medulloblastoma PDX cells were treated by oral administration with either vehicle (10% DMSO, 10% Tween 80) or Compound 171 (100 mg/kg). After 5.5 hours, animals were sacrificed, and tumors were harvested, dissociated, lysed and subjected to Western blotting with antibodies specific for Myc or GAPDH as control.

Myc [11] = assay: Myc inhibition assay: Myc expression per cell by anti-Myc immunofluorescence, high-content imaging; format: cell-based, human (patient-derived medulloblastoma xenograft cells); details: for IC50: medulloblastoma PDX cells, 4 h
Summary of the method: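 IC50 comes from high-content imaging of per-cell Myc immunostaining (DAPI-labelled nuclei) after 4 h compound exposure. Cells were freshly dissociated medulloblastoma PDX tumours, never passaged in vitro, grown in NSG mouse cerebellum, plated serum-free and recovered overnight before treatment.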

time for which brain concentration remained above the IC90 level ([2]; brain): more than 6 hours
time for which plasma concentration remained above the IC90 level ([2]; plasma): more than 6 hours
IC50 (Myc [11]; Table 1, read-out: IC50 (Myc inhibition)): < 200 nM
IC50 (Myc [11]; Table 2, read-out: MYC Inhibition IC50): < 200 nM
Structure (SMILES): FC(F)(F)c1cccc(Nc2nccc(-c3ccc4nc[nH]c4c3)n2)c1 [Compound 171, 4-(1H-Benzo[d]imidazol-6-yl)-N-(3-(trifluoromethyl)phenyl)pyrimidin-2-amine 2HCl]
inhibition of Myc, H-82 (Myc [1]): substantial inhibition of Myc
blood-brain-barrier crossing and retention in the brain [2]: ability to cross the blood-brain-barrier with good retention in the brain
inhibition of Myc expression at 2 and 4 hours (Myc [3]; 2 and 4 hours vs 1 hour): greater inhibition
time of first inhibition of Myc expression (Myc [3]): ≤ 1 h
reduction in cell viability by 48 hours ([4]; 48 hours, CellTiter Glo (FIG. 4B)): 80%
reduction in cell viability by 96 hours ([4]; 96 hours, CellTiter Glo (FIG. 4C)): 100%
effect on cell viability [5]: no effect
inhibition of Myc, BxPC-3 (Myc [6]): substantial inhibition of Myc
inhibition of Myc, HL-60 (Myc [7]): substantial inhibition of Myc
inhibition of Myc, THP-1 (Myc [8]): substantial inhibition of Myc
effect on expression of the retinoblastoma (Rb) protein [9]: no effect
reduction of Myc levels in intracranial tumors (Myc [10]; 100 mg/kg oral (FIG. 7)): reduction of Myc levels
mice with undetectable Myc expression in intracranial tumors (Myc [10]; 100 mg/kg oral, after more than 5 hours (5.5 hours), Western blot): 3 out of 6
Myc expression inhibition (in words) (Myc [11]; PDX511 medulloblastoma cells (FIG. 3A)): Myc expression inhibition
